# Laboratory results taken from publication PMC7617978, “Anti-trypanosomal quinazolines targeting lysyl-tRNA synthetases show partial efficacy in a mouse model of acute Chagas disease” (Science translational medicine, 2025).
# Read-outs that look alike come from different tables or passages of the source.
# How the values were obtained:
# [1] = tested on: T. cruzi epimastigote lysates; test: Isothermal proteome profiling (iTPP), other hit proteins; format: binding; conditions: 10× EC50, 48°C
# Procedure: T. cruzi epimastigote lysates were generated as previously described ([29]). Isothermal TPP assays were performed as previously described ([25]). […] Data processing and analyses were performed as previously described ([25]), except proteins were identified via searches against the T. cruzi Dm28C proteome (tritrypdb.org, version 49).
# [2] = tested on: T. cruzi (Tulahuen strain) intracellular amastigote (in L6 cells); test: Drug sensitivity assay, T. cruzi (Tulahuen)-infected L6 rat skeletal myoblasts; format: cell-based; conditions: Trypanosoma cruzi
# Procedure: T. cruzi epimastigotes of the Silvio strain (MHOM/BR/78/Silvio; clone X10/7A) were maintained at 28°C in RPMI 1640 medium (Merck) supplemented with trypticase peptone (4.9 mg/ml), HEPES (20 mM), haemin (20 μg/ml), and foetal bovine serum (FBS, 10%), as previously described ([29]). T. cruzi metacyclic trypomastigotes were obtained and maintained, as previously described ([29]). Briefly, late-log epimastigotes were seeded at 10^6 cells/ml in RTH/FBS and differentiated into trypomastigotes after 7 days at 28°C. Vero cells were infected with trypomastigotes for 12 hours in Dulbecco modified Eagle medium (DMEM) supplemented with 5% FBS, at 37°C in the presence of 5% CO2. Infected Vero cells were washed 3× with DMEM/FBS to remove extracellular parasites, and medium was replaced every two days until trypomastigotes re-emerged. Three rounds of infection were performed before trypomastigotes were harvested for drug sensitivity assays. For drug sensitivity assays carried out at the Swiss Tropical Institute, a T. cruzi cell line (Tulahuen C2C4) expressing the β-galactosidase gene LacZ was propagated in L6 rat skeletal myoblasts (ATCC CRL-1458) as previously described ([37]).
# Drug sensitivity assays with T. cruzi (Tulahuen)-infected L6 rat skeletal myoblasts were carried out as previously described ([37]).
# [3] = molecular target: T1, human KRS (Homo sapiens, UniProt Q15046); test: Human KRS inhibition assay using BIOMOL Green; format: biochemical; conditions: for IC50: recombinant HsKRS, 3.5 μM ATP, 6 μM L-lysine, read-out: IC50 values (95% CI)
# T1 construct: made in house
# Procedure: Cloning, expression and purification of recombinant HsKRS has been described previously ([21]).
# The enzymatic activity of recombinant KRS was determined by monitoring the concentration of pyrophosphate released during the first step of the reaction catalyzed by recombinant TcKRS1. The pyrophosphate formed was converted to two inorganic phosphate molecules using a pyrophosphatase enzyme and concentrations of the resulting phosphate were measured using the BIOMOL Green reagent (Enzo Life Sciences). All screening assays were performed in 384-well, clear, flat-bottom plates (Greiner) at room temperature (~23°C) in 50 μl reaction volumes.
# To generate IC50 data for test compounds, 10-point inhibitor dose-response curves were prepared in 384-well assay plates using an ECHO 550 acoustic dispenser (Labcyte).
# All assays were performed by adding 25 μl of assay buffer with enzyme to compound-containing assay wells before the reaction was initiated with the addition of a 25 μl substrate mixture containing L-lysine, ATP and pyrophosphatase. […] Following a 6–h reaction at room temperature, the assays were stopped by the addition of 50 μl BIOMOL Green. The BIOMOL Green signal was allowed to develop for 30 min before the absorbance of each well was read at 650 nm using a PheraStar plate reader (BMG). All liquid-dispensing steps were carried out using a Thermo Scientific WellMate dispenser (Matrix).
# All IC50 curve fitting was undertaken using ActivityBase XE (version 7.7.1) from IDBS. Percentage inhibition curves for TcKRS1 and human KRS, were fitted to a four-parameter logistic dose-response equation (XLfit model 203), with pre-fitting for all four parameters, using the equation below, where A is no inhibition, B is maximum inhibition, C is the Log10 (IC50), D is the Hill slope and x is the inhibitor concentration. […]
# [4] = molecular target: CYP2D6 (Homo sapiens, UniProt P10635); test: In vitro CYP inhibition, 2D6; format: in vitro ADME
# Procedure: (§1) Compounds were screened for CYP inhibition activity using the protocol established by TCG Lifesciences (India). The activity of five CYP450 isoforms: 1A2; 2C9; 2D6, 3A4; and 2C19 was monitored in the presence of test or control (miconazole) compounds at 10 µM. Reactions were terminated after 10 min (30 min for CYP2C19) by the addition of acetonitrile, centrifuged and analysed via LC-MS/MS. […]
# [5] = Plasma protein binding; format: in vitro ADME; conditions: read-out: bound to plasma proteins (converted)
# Procedure: The propensity of DMU759 to bind to plasma proteins was determined as previously described ([21]).
# [6] = tested on: HepG2; test: Drug sensitivity assay, HepG2 cells; format: cell-based
# Procedure: Human HepG2 cells (ECACC 85011430) were cultivated at 37°C in minimal essential medium (MEM) supplemented with GlutaMax (1×, Thermo Fisher), 10% (v/v) fetal bovine serum (FBS), MEM non-essential amino acids (1×, Sigma) and in the presence of 5% CO2, as previously described ([29]). Cells were passaged twice weekly through detachment of adherent cells with trypsin/EDTA (Sigma) and subsequent dilution into fresh medium.
# The relative potency of test compounds against T. cruzi epimastigotes ([29]), T. b. brucei bloodstream forms ([41]), T. b. rhodesiense bloodstream forms ([42]), L. donovani promastigotes ([43]) and Hep G2 cells ([29]) were established as previously described. The potency of test compounds on intracellular T. cruzi (Sylvio, X10/7A1) were determined in 96-well plates as previously described ([29]).
# [7] = molecular target: CYP3A4 (Homo sapiens, UniProt P08684); test: In vitro CYP inhibition, 3A4; format: in vitro ADME
# Procedure: as §1
# [8] = tested on: T. b. brucei BSF; test: Drug sensitivity assay, T. b. brucei bloodstream forms; format: cell-based; conditions: for EC50: Trypanosoma brucei
# [9] = 19S proteasome regulatory subunit (C4B63_14g170)
# [10] = Conserved hypothetical protein (C4B63_42g251)
# [11] = Mitochondrial processing peptidase, beta subunit (C4B63_3g1101)
# [12] = Ribosomal protein S26 (C4B63_6g2300)
# [13] = cysteine peptidase, Clan CA, family C2 (C4B63_22g162)
# [14] = KRS1 OE, BSF, read-out: EC50 value
# [15] = read-out: EC50 value, KRS1 S319L (as printed in Table S1), BSF
# T1 sequence (Q15046 whole entry): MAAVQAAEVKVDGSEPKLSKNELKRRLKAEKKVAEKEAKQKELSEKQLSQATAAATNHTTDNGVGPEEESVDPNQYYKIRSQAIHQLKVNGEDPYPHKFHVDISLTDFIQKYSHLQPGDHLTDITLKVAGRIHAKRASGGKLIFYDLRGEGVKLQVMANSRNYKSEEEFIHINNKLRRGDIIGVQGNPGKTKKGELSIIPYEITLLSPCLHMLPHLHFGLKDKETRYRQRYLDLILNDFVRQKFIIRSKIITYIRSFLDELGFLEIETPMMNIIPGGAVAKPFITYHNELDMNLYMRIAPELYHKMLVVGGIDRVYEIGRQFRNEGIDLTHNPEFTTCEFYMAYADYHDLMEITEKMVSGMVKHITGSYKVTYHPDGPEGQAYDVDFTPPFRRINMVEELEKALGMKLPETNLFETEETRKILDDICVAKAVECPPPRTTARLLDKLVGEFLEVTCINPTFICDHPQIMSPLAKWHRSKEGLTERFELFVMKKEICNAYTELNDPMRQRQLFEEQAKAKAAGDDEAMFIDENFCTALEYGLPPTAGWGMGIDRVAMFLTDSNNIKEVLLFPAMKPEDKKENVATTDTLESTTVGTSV
# Chain of CYP2D6 (P10635 whole entry, canonical isoform): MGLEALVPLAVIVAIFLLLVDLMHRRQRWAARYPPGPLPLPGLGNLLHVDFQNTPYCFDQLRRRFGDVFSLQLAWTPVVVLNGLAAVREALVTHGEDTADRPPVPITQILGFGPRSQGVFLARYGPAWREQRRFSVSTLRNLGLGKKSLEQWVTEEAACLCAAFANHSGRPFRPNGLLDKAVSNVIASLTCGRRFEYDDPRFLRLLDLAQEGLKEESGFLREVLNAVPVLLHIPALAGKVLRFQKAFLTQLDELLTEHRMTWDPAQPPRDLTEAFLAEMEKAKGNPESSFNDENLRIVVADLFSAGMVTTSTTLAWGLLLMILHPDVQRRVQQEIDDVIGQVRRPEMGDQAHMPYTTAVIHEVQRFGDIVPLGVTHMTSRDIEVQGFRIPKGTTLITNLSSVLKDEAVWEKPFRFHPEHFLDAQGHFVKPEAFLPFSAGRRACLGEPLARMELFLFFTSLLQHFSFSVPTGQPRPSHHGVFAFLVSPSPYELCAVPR
# Chain of CYP3A4 (P08684 whole entry): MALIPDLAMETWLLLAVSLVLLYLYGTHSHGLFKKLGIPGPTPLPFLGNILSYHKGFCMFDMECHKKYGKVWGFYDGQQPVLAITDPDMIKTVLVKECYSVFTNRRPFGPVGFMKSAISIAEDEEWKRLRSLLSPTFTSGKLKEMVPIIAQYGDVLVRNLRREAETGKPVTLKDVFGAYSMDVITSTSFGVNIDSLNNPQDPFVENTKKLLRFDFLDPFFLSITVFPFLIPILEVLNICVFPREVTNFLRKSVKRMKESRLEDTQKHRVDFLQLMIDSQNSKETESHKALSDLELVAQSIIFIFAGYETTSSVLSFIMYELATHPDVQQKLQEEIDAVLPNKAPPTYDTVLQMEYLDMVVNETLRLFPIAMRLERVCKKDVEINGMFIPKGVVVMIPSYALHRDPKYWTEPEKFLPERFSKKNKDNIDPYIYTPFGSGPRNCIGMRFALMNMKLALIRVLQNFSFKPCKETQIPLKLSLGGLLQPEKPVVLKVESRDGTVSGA
smiles,measurement,setting,value
"Cc1nc(N)c2c(F)c(F)c(SC3CCCCC3)c(F)c2n1 [DMU759, 7-(Cyclohexylthio)-5,6,8-trifluoro-2-methylquinazolin-4-amine]",Abundance Log2 fold change Rep 1,[1]; [9],-2.64
same,Abundance Log2 fold change Rep 2,[1]; [9],-3.79
same,Abundance Log2 fold change Rep 1,[1]; [10],-2.25
same,Abundance Log2 fold change Rep 2,[1]; [10],-1.75
same,Abundance Log2 fold change Rep 1,[1]; [11],-2.04
same,Abundance Log2 fold change Rep 2,[1]; [11],-2.35
same,Abundance Log2 fold change Rep 1,[1]; P-type H+-ATPase (C4B63_116g3),-2.27
same,Abundance Log2 fold change Rep 2,[1]; P-type H+-ATPase (C4B63_116g3),-1.74
same,Abundance Log2 fold change Rep 1,[1]; [12],-1.59
same,Abundance Log2 fold change Rep 2,[1]; [12],-1.80
same,Abundance Log2 fold change Rep 1,[1]; [13],-1.58
same,Abundance Log2 fold change Rep 2,[1]; [13],-2.80
same,EC50,"[2]; WT Tulahuen strain, intracellular amastigote in L6 cells, read-out: EC50 value",0.018 ± 0.007 µM
same,extent of inhibition of the human KRS1 enzyme,[3],partial inhibition
same,IC50,[3],7.17 µM
same,"inhibition at 10 min, 10 µM",[4],14.5 ± 2.5%
same,fraction unbound,[5],0.11
same,EC50,"[6]; Homo sapiens, HepG2; read-out: EC50 value",16.9 ± 5.38 µM
same,"inhibition at 10 min, 10 µM",[7],0%
same,Fold-shift (relative to WT),"[8]; KRS1 OE, BSF",9 fold
same,Fold-shift (relative to WT),"[8]; KRS1 serine-to-leucine mutant (S323L; printed S319L in Table S1), BSF",58 fold
same,EC50,[8]; [14],1.06 ± 0.033 µM
same,EC50,"[8]; WT, BSF, read-out: EC50 value",0.112 ± 0.0008 µM
same,EC50,[8]; [15],6.48 ± 0.36 µM
"Cc1nc(N)c2c(F)c(F)c(NC3CCCC3)c(F)c2n1 [DMU371, N7-Cyclopentyl-5,6,8-trifluoro-2-methylquinazoline-4,7-diamine]",EC50,"[2]; TULAHUEN, L6, read-out: EC50 value",0.233 ± 0.086 µM
same,extent of inhibition of the human KRS1 enzyme,[3],partial inhibition
same,IC50,[3],9.8 µM
same,EC50,"[6]; Homo sapiens, HepG2, read-out: EC50 value",5.82 ± 0.5 µM
same,EC50,[8]; [14],4.25 ± 0.17 µM
same,EC50,"[8]; WT, BSF, read-out: EC50 value",0.607 ± 0.009 µM
same,EC50,[8]; [15],1.87 ± 0.071 µM
